Measured values: the supplement of paper PMC4314810
± gives the standard deviation of the averaged measurements.

The sequences below were run on MCF7 (assay: HRG-induced Akt activation (dPAkt = log2 pAkt/Akt HRG-stimulated minus log2 pAkt/Akt basal) (log2 ratio difference); higher = stronger HRG-induced Akt(T308) phosphorylation). Conditions: miRNA mimic concentration 10 nM; time after transfection 72 h; heregulin 10 ng/ml; stimulation time 1 h.
Method in brief: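 MCF7 cells ([…], 96-well plates) carrying one of 879 miRNA mimics, transfected at 10 nM final with Lipofectamine RNAiMax in two biological replicates, were stimulated after 72 h with 10 ng/ml heregulin-beta1 for 1 h or left unstimulated. Phospho-Akt(T308) and total Akt in cells fixed with 4% PFA were read by In-Cell Western on an Odyssey and corrected for column-wise fixation decay to give log2(pAkt/Akt). Heregulin-induced Akt activation is the replicate mean of stimulated minus unstimulated ratios.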

Sequence | HRG-induced Akt activation (log2)
CAGGAUGUGGUCAAGUGUUGUU | 1.41 ± 0.093
ACAGUAGUCUGCACAUUGGUUA | 1.692 ± 0.0034
UCGUGCAUCCCUUUAGAGUGUU | 1.6 ± 0.022
GGGGUUCCUGGGGAUGGGAUUU | 1.21 ± 0.3
UUCAAGUAAUUCAGGAUAGGU | 1.06 ± 0.39
UUCAAGUAAUUCAGGUG | 1.22 ± 0.15
AUAAUACAUGGUUAACCUCUUU | 1.2 ± 0.064
CGGCAACAAGAAACUGCCUGAG | 1.46 ± 0.68
UAUACAAGGGCAAGCUCUCUGU | 1.05 ± 0.18
CUGGUUUCACAUGGUGGCUUAG | 2.33 ± 0.15
UAAUUUUAUGUAUAAGCUAGU | 1.79 ± 0.15
AAACAUUCGCGGUGCACUUCUU | 1.84 ± 0.035
AACUGGCCUACAAAGUCCCAGU | 2.21 ± 0.14
CACUGGCUCCUUUCUGGGUAGA | 2.02 ± 0.43
ACCUUCUUGUAUAAGCACUGUGCUAAA | 1.54 ± 0.13
UUUGGUCCCCUUCAACCAGCUA | 1.61 ± 0.066
AGAGGAUACCCUUUGUAUGUU | 1.23 ± 0.53
CAACCUGGAGGACUCCAUGCUG | 0.949 ± 0.19
CUAAUAGUAUCUACCACAAUAAA | 1.84 ± 0.24
UGAGGUAGGAGGUUGUAUAGUU | 1.11 ± 0.083
GAGCCAGUUGGACAGGAGC | 1.77 ± 0.38
UACCCAGAGCAUGCAGUGUGAA | 1.78 ± 0.12
CCUCUGAAAUUCAGUUCUUCAG | 1.76 ± 0.071
UUGUACAUGGUAGGCUUUCAUU | 1.7 ± 0.31

Sequence | HRG-induced Akt activation (log2)
CCUCCCACACCCAAGGCUUGCA | 1.37 ± 0.3
GGAGGGGUCCCGCACUGGGAGG | 1.82 ± 0.057
AAAGUGCUUCCUUUUUGAGGG | 0.963 ± 0.46
CUGGAUGGCUCCUCCAUGUCU | 1.96 ± 0.42
AGAUCAGAAGGUGAUUGUGGCU | 1.56 ± 0.3
CCUCUUCCCCUUGUCUCUCCAG | 1.52 ± 0.031
UAAAGUGCUGACAGUGCAGAU | 1.52 ± 0.054
UAAGUGCUUCCAUGUUUGAGUGU | 1.17 ± 0.15
UACUGCAGACAGUGGCAAUCA | 1.21 ± 0.45
ACUGGACUUAGGGUCAGAAGGC | 2.01 ± 0.38
UAUGUAACACGGUCCACUAACC | 1.73 ± 0.081
UCCCUGAGACCCUAACUUGUGA | 1.35 ± 0.79
CAACACCAGUCGAUGGGCUGU | 1.34 ± 0.34
UAGCAGCACAGAAAUAUUGGC | 1.42 ± 0.76
UAGAUAAAAUAUUGGUACCUG | 1.34 ± 0.55
CCUGUUCUCCAUUACUUGGCUC | 1.53 ± 0.36
UGGCAGGGAGGCUGGGAGGGG | 1.63 ± 0.15
AAGCUGCCAGUUGAAGAACUGU | 1.23 ± 0.26
AAUCCUUGGAACCUAGGUGUGAGU | 2.15 ± 0.11
UCCUGUACUGAGCUGCCCCGAG | 1.79 ± 0.1
ACGGGUUAGGCUCUUGGGAGCU | 1.38 ± 0.043
ACUGGACUUGGAGUCAGAAGG | 1.47 ± 0.21
UCACUCCUCUCCUCCCGUCUU | 1.4 ± 0.36
UGGUUCUAGACUUGCCAACUA | 1.94 ± 0.026

Sequence | HRG-induced Akt activation (log2)
AUUGACACUUCUGUGAGUAGA | 1.55 ± 0.046
AAAAGUAAUUGCGAGUUUUACC | 1.34 ± 0.091
AUAUAUGAUGACUUAGCUUUU | 2.03 ± 0.027
UAAGUGCUUCCAUGUUUUGGUGA | 0.743 ± 0.38
AGGCAUUGACUUCUCACUAGCU | 1.66 ± 0.32
CUUGGCACCUAGCAAGCACUCA | 1.45 ± 0.58
AAACUACUGAAAAUCAAAGAU | 1.76 ± 0.11
GGCUACAACACAGGACCCGGGC | 1.88 ± 0.32
AAGAUGUGGAAAAAUUGGAAUC | 1.68 ± 0.17
CUGCGCAAGCUACUGCCUUGCU | 1.07 ± 0.26
UGGACGGAGAACUGAUAAGGGU | 1.48 ± 0.21
AGAGUCUUGUGAUGUCUUGC | 2.38 ± 0.067
UACUGCAGACGUGGCAAUCAUG | 1 ± 0.63
AACCCGUAGAUCCGAACUUGUG | 1.11 ± 0.13
ACUCAAACUGUGGGGGCACU | 0.915 ± 0.061
AAUGCACCUGGGCAAGGAUUCA | 1.43 ± 0.42
AUGUAUAAAUGUAUACACAC | 1.42 ± 0.5
GCAGCAGAGAAUAGGACUACGUC | 1.7 ± 0.032
AAAGUGCUUCUCUUUGGUGGGU | 0.92 ± 0.047
UUAGGGCCCUGGCUCCAUCUCC | 1.954 ± 0.014
CAUCCCUUGCAUGGUGGAGGG | 1.97 ± 0.25
CUAGACUGAAGCUCCUUGAGG | 1.46 ± 0.25
GCUAUUUCACGACACCAGGGUU | 1.693 ± 0.0017
UAGUAGACCGUAUAGCGUACG | 1.5 ± 0.21

Sequence | HRG-induced Akt activation (log2)
AAUCAUGUGCAGUGCCAAUAUG | 1.51 ± 0.15
UGAGUGCCGGUGCCUGCCCUG | 1.43 ± 0.08
CUCUAGAGGGAAGCACUUUCUC | 1.85 ± 0.4
AAAACCGUCUAGUUACAGUUGU | 1.26 ± 0.26
CAGUUAUCACAGUGCUGAUGCU | 1.66 ± 0.42
AACAUUCAACCUGUCGGUGAGU | 2.38 ± 0.33
UAGCAGCACAUCAUGGUUUACA | 1.59 ± 0.025
UUGUGUCAAUAUGCGAUGAUGU | 1.768 ± 0.00038
CAGUAACAAAGAUUCAUCCUUGU | 2.1 ± 0.17
ACUCUAGCUGCCAAAGGCGCU | 1.02 ± 0.67
CAACAAAUCCCAGUCUACCUAA | 1.51 ± 0.076
UAUGGCUUUUUAUUCCUAUGUGA | 1.27 ± 0.27
AAUCCUUUGUCCCUGGGUGAGA | 1.76 ± 0.094
AGAUCGACCGUGUUAUAUUCGC | 2.02 ± 0.14
CAUGGUUCUGUCAAGCACCGCG | 1.34 ± 0.18
GUGAACGGGCGCCAUCCCGAGG | 1.9231 ± 0.00011
AUAAAGCUAGAUAACCGAAAGU | 2.04 ± 0.33
UCGCCUCCUCCUCUCCC | 1.47 ± 0.17
UUUUGCAAUAUGUUCCUGAAUA | 1.01 ± 0.24
UGAGGGGCAGAGAGCGAGACUUU | 1.83 ± 0.26
UUCCCUUUGUCAUCCUAUGCCU | 0.793 ± 0.043
CGGGGUUUUGAGGGCGAGAUGA | 2.25 ± 0.089
AGGCGGGGCGCCGCGGGACCGC | 1.22 ± 0.12
UGGGUUUACGUUGGGAGAACU | 1.44 ± 0.096

Sequence | HRG-induced Akt activation (log2)
GUCCAGUUUUCCCAGGAAUCCCU | 1.7 ± 0.2
AAACUCUACUUGUCCUUCUGAGU | 0.945 ± 0.39
AAAGUGCUGCGACAUUUGAGCGU | 0.644 ± 0.26
UAACUGGUUGAACAACUGAACC | 1.93 ± 0.54
UACAGUAUAGAUGAUGUACU | 1.39 ± 0.57
UUGUGCUUGAUCUAACCAUGU | 1.1 ± 0.016
AUUCUGCAUUUUUAGCAAGUUC | 1.8 ± 0.078
CAAGUCACUAGUGGUUCCGUU | 1.49 ± 0.5
ACUCGGCGUGGCGUCGGUCGUG | 2.34 ± 0.17
GUGUCUGGGCGGACAGCUGC | 1.87 ± 0.23
GCGACCCAUACUUGGUUUCAG | 1.44 ± 0.25
GUGUGUGGAAAUGCUUCUGC | 2.16 ± 0.41
AAGGCAGGGCCCCCGCUCCCC | 1.14 ± 0.77
UCUAGUAAGAGUGGCAGUCGA | 1.322 ± 0.0056
CAAAGAGGAAGGUCCCAUUAC | 2.01 ± 0.3
CAAAAACCACAGUUUCUUUUGC | 0.997 ± 0.23
CCUAGUAGGUGUCCAGUAAGUGU | 1.04 ± 0.63
AUCUGGAGGUAAGAAGCACUUU | 1.83 ± 0.33
AUGGAGAUAGAUAUAGAAAU | 1.51 ± 0.11
CUUCUUGUGCUCUAGGAUUGU | 1.13 ± 0.024
UUCAUUCGGCUGUCCAGAUGUA | 1.48 ± 0.1
AAAGUGCAUCCUUUUAGAGGUU | 0.411 ± 0.64
UGUUUUGAUAACAGUAAUGU | 1.44 ± 0.064
GGGUGGGGAUUUGUUGCAUUAC | 1.16 ± 0.097

Sequence | HRG-induced Akt activation (log2)
UGUAGUGUUUCCUACUUUAUGGA | 1.77 ± 0.26
GCUGACUCCUAGUCCAGGGCUC | 1.53 ± 0.099
CAUAAAGUAGAAAGCACUACU | 1.54 ± 0.062
GCCCCUGGGCCUAUCCUAGAA | 1.25 ± 0.56
AGGCACCAGCCAGGCAUUGCUCAGC | 1.51 ± 0.2
CAAAACUGGCAAUUACUUUUGC | 1.5 ± 0.052
ACAAAGUGCUUCCCUUUAGAGUGU | 1.41 ± 0.53
CUGUAAUAUAAAUUUAAUUUAUU | 1.42 ± 0.037
UGAGUUGGCCAUCUGAGUGAG | 1.61 ± 0.27
UGGUUUACCGUCCCACAUACAU | 0.811 ± 0.33
CAAAAGUAAUUGUGGAUUUUGU | 1.5 ± 0.065
CUGACCUAUGAAUUGACAGCC | 1.18 ± 0.15
UAUACAAGGGCAGACUCUCUCU | 1.48 ± 0.24
AUCGUGCAUCCCUUUAGAGUGU | 1.54 ± 0.1
AAUAUAACACAGAUGGCCUGU | 1.36 ± 0.25
AAAGUUCUGAGACACUCCGACU | 1.35 ± 0.082
CGGCUCUGGGUCUGUGGGGA | 1.13 ± 0.17
UAGGUAGUUUCAUGUUGUUGGG | 1.86 ± 0.1
CCUCCUGCCCUCCUUGCUGU | 2.4 ± 0.096
UGGAGUCCAGGAAUCUGCAUUUU | 0.279 ± 0.71
